# Data reported in article PMC8661032, “Broad-Spectrum Antibacterial Peptide Kills Extracellular and Intracellular Bacteria Without Affecting Epithelialization” (Frontiers in Microbiology, 2021).
# Residues, ends and D or L forms follow the SMILES beside them.
# How the values were obtained:
# [1] = test system: S. epidermidis MRSE (SO-SEP9-1); details: SO-SEP9-1, 24 h
# Description: (§1) Briefly, bacterial colonies from blood agar plates were suspended and grown in Cation-Adjusted Mueller-Hinton Broth (CAMHB, […] Ca^2+, […] Mg^2+). The bacterial suspension was adjusted to 0.5 McFarland standard (∼1 × 10^8 colony-forming units (CFU)/ml) and serial diluted 1:200 in CAMHB (∼5 × 10^5 CFU/mL). […] The suspension was plated out on blood agar plates to confirm the CFU/ml. Both the microtiter plates and the blood agar plates were incubated at 37°C for 24 h.
# E. coli [2] = test: Growth inhibition assay (OD600 over 24 h); type: cell-based, Escherichia coli; design: Reduction of viability E. coli (60 μg/ml): key to the marks not given beside the values; details: LB medium
# Description: An overnight culture of Escherichia coli was diluted 1:100 in Luria-Bertani (LB) medium and allowed to grow until an optical density (OD) at 600 nm (OD600) of 0.06–0.1. APIM-peptides were prepared by serial dilution in Milli-Q H2O and kept at 4°C. Fresh LB medium (60 μl) was added to a flat-bottom microtiter plate. The bacterial suspension was diluted 1:100 in LB, and 75 μl of this suspension was added to the wells. Finally, 15 μl of APIM-peptide solution (to final concentrations 60, 120, and 240 μg/ml) or distilled water (positive control) was added to the wells, reaching a total volume of 150 μl per well. Data are presented only for the dose that separated the effect of the different peptides, i.e., 60 μg/ml. A blank sterile medium was used as negative control. The plates were incubated with shaking at 510 rpm at 37°C inside a plate reader (TECAN, Spark®), and OD was read every hour over a period of 24 h.
# The MIC for E. coli in LB medium is higher than that in CAMHB; thus, concentrations higher than the MIC given in Table 2 are used in the growth inhibition and mutagenesis assays. […]
# E. coli. Growth of E. coli in LB medium over 24 hours (Optical Density (OD) 600 nm) after addition
# of APIM-peptide variants 1-5 (60 µg/mL) at time t=0 (see Table 2). Negative (-) control is no
# bacteria added, positive (+) control is untreated bacteria.
# highest inhibition of growth.
# control (black filled line).
# HEK293 cells = test system: HEK293 cells
# Description: HEK293 cells (6,000 cells/well) were seeded in 96-well microtiter plates. After 4 h, APIM-peptides (12–48 μg/ml) were added, and the cells were incubated without change of media for up to 4 days. Viability was measured using the 3-(4,5-dimethylthiazol-2-yl)-2,5-diphenyltetrazolium bromide (MTT) assay as described ([Gilljam et al., 2009]).
# (1 picture or pasted object on this page, not shown here)
# E. coli [3] = test: Rifampicin (RifR) mutagenesis assay after UV-C; type: cell-based, Escherichia coli; details: 20 μg/ml peptide, UV-C 20 mJ/cm^2, RifR assay, relative to untreated control
# Description: The rifampicin (Rif^R) mutagenesis assay was performed as described ([Nedal et al., 2020]). Briefly, an overnight culture of E. coli was diluted 1:1,000 and grown until an OD600 of 0.01. APIM-peptides (20 μg/ml) were added to LB media with glass beads (for uniform distribution of APIM-peptides) and incubated for 30 min at 37°C. The pellets were next collected, resuspended in 500 μl PBS, and exposed to UV-C (20 mJ/cm^2) in a six-well plate at 4°C. The unexposed bacteria (-UV) were otherwise handled exactly like the UV-exposed bacteria. Next, the cells were resuspended in LB media and incubated in a rotary shaker at 37°C at 250 rpm for 2 h before being harvested, diluted, and plated on LB with soft agar with and without rifampicin (100 μg/ml). Mutation frequency, Rif^R/10^8, is obtained as follows: (number of colonies on the rifampicin plate (Rif^R)/(number of colonies on LB plates without antibiotics), per milliliter of bacterial suspension. […]
# mutagenesis in E. coli more efficiently than the other peptide variants.
# Increase in mutation frequencies after treatment with UV-C (20 mJ/cm2) relative to spontaneous mutations frequencies using the RifR assay were determined. This increase is set to 100% for untreated control, and % reduction after addition of peptides 1-5 (20 μg/mL) are shown. Mean ± SD from three independent experiments. * p<0.05, ** p<0.005
# A. baumannii = test: microbe, parasite or virus in culture; details: 24 h
# Description: as §1
# E. cloacae = test: microbe, parasite or virus in culture; details: 24 h
# Description: as §1
# E. coli [4] = test: microbe, parasite or virus in culture; details: 24 h
# Description: as §1
# E. faecium = test: microbe, parasite or virus in culture; details: 24 h
# Description: as §1
# K. pneumoniae = test: microbe, parasite or virus in culture; details: 24 h
# Description: as §1
# P. aeruginosa = test: microbe, parasite or virus in culture; details: 24 h
# Description: as §1
# S. aureus = test: microbe, parasite or virus in culture; details: 24 h
# Description: as §1
# HaCaT keratinocytes = type: cell-based, human; details: betatide 2 μg/ml, 3-mm gap, similar to the uninfected cells
# Description: Bacterial growth was examined by plating of supernatants.
# Epithelialization was calculated from the change in the area of the gaps over time using freehand or rectangular selections in the software Fiji ImageJ 1.52p (National Institutes of Health, United States).
# =(AreaofgapinDay 1-Areaofgapineachconsecutiveday)/AreaofgapinDay 1
# [5] = test system: intracellular S. aureus ATCC 29213 in HaCaT cells; test: Intracellular infection model; type: cell-based, Staphylococcus aureus
# Description: The intracellular infection model used was modified from [Iqbal et al. (2016)] by optimizing the number of multiplicity of infection (MOI: number of bacteria per cell) and time of infection. Briefly, HaCaT cells (6.5 × 10^4/well) were seeded in 24-well plates and incubated overnight in a medium without antibiotics. The next day, approximately 1.25 × 10^5 cells/well were infected with S. aureus at an MOI of 100 in antibiotic-free media. The plates were incubated for 3 h. […] After 16 h of incubation, the extracellular media (100 μl) from each well were plated to confirm the eradication of extracellular S. aureus. Next, the cells were washed 2× with 500 μl PBS before they were lysed with 0.2% Triton-X (500 μl) for 30 min at room temperature. The lysed samples were placed on ice, and 500 μl cold Tryptic Soy Broth was added before they were plated on blood agar plates.
# bacteria = test: MIC comparisons between peptide variants (bacterium not stated); type: cell-based; details: betatide compared to ATX-101
# Cpx mutant E. coli cells = Cpx mutant E. coli cells with constitutive active Cpx response; ref Frimodt-Moller et al., 2021; cited from earlier work
# Text: This, in turn, can reduce the fitness of the bacteria, similar to what has been shown for another peptide targeting the β-clamp called griselimycin.
structure (smiles),measurement,setting,value
CC[C@H](C)[C@H](NC(=O)CNC(=O)[C@H](CCCCN)NC(=O)[C@@H](NC(=O)[C@H](CC(C)C)NC(=O)[C@H](Cc1c[nH]c2ccccc12)NC(=O)[C@H](CCCNC(=N)N)NC(=O)[C@H](CC(=O)O)NC(=O)[C@H](CCSC)NC(C)=O)C(C)C)C(=O)N[C@@H](CC(C)C)C(=O)N[C@@H](CCC(N)=O)C(=O)N[C@@H](Cc1c[nH]c2ccccc12)C(=O)N[C@@H](CCCNC(=N)N)C(=O)N[C@@H](CCCCN)C(=O)N[C@H](C(=O)N[C@@H](CCCNC(=N)N)C(=O)N[C@@H](CCCNC(=N)N)C(=O)N[C@@H](CCCNC(=N)N)C(=O)N[C@@H](CCCNC(=N)N)C(=O)N[C@@H](CCCNC(=N)N)C(=O)N[C@@H](CCCNC(=N)N)C(=O)N[C@@H](CCCNC(=N)N)C(=O)N[C@@H](CCCNC(=N)N)C(=O)N[C@@H](CCCNC(=N)N)C(=O)N[C@@H](CCCNC(=N)N)C(=O)N[C@@H](CCCNC(=N)N)C(N)=O)[C@@H](C)CC [betatide] (Ac-MDRWLVKGILQWRKIRRRRRRRRRRR-NH2),MIC S. epidermidis MRSE,[1],16 µg/mL
same,MIC for MRSE in DMEM,[1],0.25 µg/mL
same,inhibition of growth of E. coli (OD 600 nm),"E. coli [2]; 60 µg/mL, over 24 hours, Supplementary Figure S1",lowest OD after 8 hours
same,Reduction of viability E. coli (60 μg/ml),"E. coli [2]; 60 μg/ml peptide, OD600 every hour over 24 h, relative to untreated control",++++
same,Reduction of viability HEK293 (24 μg/ml),HEK293 cells,+
same,Reduction of mutation frequency E. coli (20 μg/ml),E. coli [3],++++
same,MIC,A. baumannii,8 µg/mL
same,MIC,"A. baumannii; Clinical isolate SO-ABA19-1 (ESBL-CARBA-D), CAMHB, three independent experiments",8 µg/mL
same,MIC,E. cloacae,16 µg/mL
same,MIC,E. coli [4],16 µg/mL
same,MIC,"E. coli [4]; Clinical isolate SO-ECO19-1 (ESBL-CARB-A(CTX-M-24)/D(OXA-48)), CAMHB, three independent experiments",16 µg/mL
same,MIC E. coli,"E. coli [4]; K-12 MG1655, CLSI broth microdilution, CAMHB, 37°C, visible growth, net peptide concentration",16 µg/mL
same,MIC,E. faecium,8 µg/mL
same,MIC,K. pneumoniae,16 µg/mL
same,MIC,P. aeruginosa,16 µg/mL
same,MIC,S. aureus,32 µg/mL
same,MIC,"S. aureus; Clinical isolate SO-SAU19-1 (MRSA), CAMHB, three independent experiments",16 µg/mL
same,MIC,"S. aureus; Reference strain ATCC 29213, CAMHB, three independent experiments",16 µg/mL
same,epithelialization of MRSE-infected HaCaT cells,HaCaT keratinocytes,completed at day 4
same,reduction in intracellular bacterial load,"[5]; betatide 24 μg/ml for 16 h, MOI 100, 3 h infection, extracellular bacteria killed by gentamicin, compared to untreated control",4 ×
same,intracellular bacterial load (CFU),"[5]; concentrations of betatide lower than 24 μg/ml, 16 h",did not cause a significant reduction in CFU
same,reduction of MIC by changes in the linker region,bacteria; from Table 2,~2 ×
same,reduction of MIC by amidation of the C-termini,bacteria; unpublished data,~4 ×
same,concentration tolerated by uninfected HaCaT cells,HaCaT cells,up to 40 μg/ml
same,increase in MIC,Cpx mutant E. coli cells,2 ×
